Test results: US9624229B2, “Pyrimidine-2-amine compounds and their use as inhibitors of JAK kinases” (Rigel Pharmaceuticals, Inc., priority 2008, dated 2017)

These molecules were tested against Ba/F3 V617F cells (Homo sapiens, UniProt O60674, V617F, cells depend on it) (assay: Proliferation assay (Cell Titer-Glo, 72 h) utilizing Ba/F3 V617F cells). Conditions: Ba/F3 V617F cells, proliferation, level of activity given as class symbol, read-out: IC50 (the source's name).
Type: cell-based, mouse
Experimental: Ba/F3 V617F cells are maintained and plated in RPMI with 10% FBS. Plating density for these cells is 1×10^5 cells/mL.
The cells were resuspended in a corresponding medium at a required cell density (see above). 100μ of cell suspension was added to each well of a flat bottom 96 well white plate. The compound was serially diluted in DMSO from 5 mM in 3-fold dilutions, and then diluted 1:250 in the RPMI 1640 medium containing 5% FBS and pen/strep. 100 μL of resulting 2× compound solution was added per well in duplicate and the cells were allowed to proliferate for 72 hours at 37° C.
Proliferation was measured using Cell Titer-Glo. The substrate was thawed and allowed to come to ambient temperature. After removal of top 100 μL of medium from each well, 100 μL of the premixed Cell Titer-Glo reagent was added to each well. The plates were mixed on an orbital shaker for three minutes to induce lysis and incubated at ambient temperature for an additional five minutes to allow the signal to equilibrate. The Luminescence was read on the Wallac Plate Reader.
The results of the ability of the compounds of the invention to inhibit JAK2 activity, when tested in the above assay utilizing Ba/F3 V617F cells, are shown in the following Tables 2-3 wherein the level of activity (i.e., the IC50) for each compound is indicated in Tables 2-3. The compound numbers in Tables 2-3 refers to the compounds disclosed herein as being prepared by the methods disclosed herein: […]

Chain of Ba/F3 V617F cells (O60674 whole entry V617F): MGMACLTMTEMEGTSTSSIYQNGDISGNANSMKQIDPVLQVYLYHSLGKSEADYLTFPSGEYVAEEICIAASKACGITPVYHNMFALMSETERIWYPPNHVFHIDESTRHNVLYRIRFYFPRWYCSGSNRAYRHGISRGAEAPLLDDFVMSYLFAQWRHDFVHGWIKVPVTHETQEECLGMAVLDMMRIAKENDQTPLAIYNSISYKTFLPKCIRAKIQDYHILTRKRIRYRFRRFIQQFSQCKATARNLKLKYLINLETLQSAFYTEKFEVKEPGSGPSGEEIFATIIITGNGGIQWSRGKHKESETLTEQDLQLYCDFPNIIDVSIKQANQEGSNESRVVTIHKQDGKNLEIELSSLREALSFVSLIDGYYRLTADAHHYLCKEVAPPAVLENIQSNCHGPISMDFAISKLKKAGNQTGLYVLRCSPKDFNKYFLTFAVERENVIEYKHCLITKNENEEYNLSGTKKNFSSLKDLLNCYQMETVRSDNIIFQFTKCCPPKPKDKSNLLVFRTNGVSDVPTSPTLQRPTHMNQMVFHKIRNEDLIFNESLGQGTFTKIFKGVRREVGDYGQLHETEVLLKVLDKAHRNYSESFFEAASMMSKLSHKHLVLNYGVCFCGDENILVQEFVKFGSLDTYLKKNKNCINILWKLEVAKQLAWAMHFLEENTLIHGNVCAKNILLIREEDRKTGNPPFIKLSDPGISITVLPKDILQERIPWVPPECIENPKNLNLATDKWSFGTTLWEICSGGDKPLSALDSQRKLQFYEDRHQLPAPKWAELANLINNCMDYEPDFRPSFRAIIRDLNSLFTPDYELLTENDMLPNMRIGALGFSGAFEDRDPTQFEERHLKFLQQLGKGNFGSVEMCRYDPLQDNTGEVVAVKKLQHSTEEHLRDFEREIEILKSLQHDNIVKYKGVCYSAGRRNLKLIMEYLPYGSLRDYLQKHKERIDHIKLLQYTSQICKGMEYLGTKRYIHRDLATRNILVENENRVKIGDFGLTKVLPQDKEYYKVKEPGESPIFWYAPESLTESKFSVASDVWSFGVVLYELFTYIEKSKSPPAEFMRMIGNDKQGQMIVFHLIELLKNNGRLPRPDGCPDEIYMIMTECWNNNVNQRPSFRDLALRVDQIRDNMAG

Row | Compound | GI50
1 | Cc1cc(Nc2nccc(-c3cnc4c(c3)OCCN4C)n2)ccc1N1C[C@@H]2C[C@H]1CO2 [compound 195, 4-(4-methyl-3,4-dihydro-2H-pyrido[3,2-b][1,4]oxazin-7-yl)-N-(3-methyl-4-((1S,4S)-5-oxa-2-azabicyclo[2.2.1]heptan-2-yl)phenyl)pyrimidin-2-amine] | < 1000 nM
2 | Cc1cc(Nc2nccc(-c3cnc4[nH]c5c(c4c3)CCCC5)n2)ccc1N1C[C@@H]2C[C@H]1CN2S(C)(=O)=O [compound 268, 4-(6,7,8,9-tetrahydro-5H-pyrido[2,3-b]indol-3-yl)-N-(3-methyl-4-((1S,4S)-5-(methylsulfonyl)-2,5-diazabicyclo[2.2.1]heptan-2-yl)phenyl)pyrimidin-2-amine] | 1000 to 10000 nM
3 | CCOCCCNc1ccc(-c2ccnc(Nc3ccc(N4CC5(C)CN(C)CC(C)(C4)C5)c(C)c3)n2)cn1 [compound 211, 4-(6-(3-ethoxypropyl)aminopyridin-3-yl)-N-(3-methyl-4-(1,5,7-trimethyl-3,7-diazabicyclo[3.3.1]nonan-3-yl)phenyl)pyrimidin-2-amine] | < 1000 nM
4 | Cc1cc(Nc2nccc(-c3ccc(N4CCOCC4)nc3)n2)ccc1N1CCN2CC[C@H]1C2 [compound 277, 4-(6-(morpholin-4-yl)pyridin-3-yl)-N-(3-methyl-4-((S)-1,4-diazabicyclo[3.2.1]octan-4-yl)phenyl)pyrimidin-2-amine] | < 1000 nM
5 | Cc1cc(Nc2nccc(-c3ccc(N4CCOCC4)nc3)n2)ccc1N1C2CCC1CC(N1CCOCC1)C2 (stereo not shown) [compound 284, 4-(6-(morpholin-4-yl)pyridin-3-yl)-N-(3-methyl-4-(3-(morpholin-4-yl)-8-azabicyclo[3.2.1]octan-8-yl)phenyl)pyrimidin-2-amine] | < 1000 nM
6 | Cc1cc(Nc2nccc(-c3ccc(C(F)(F)F)cc3)n2)ccc1N1C[C@@H]2C[C@H]1CN2C [compound 269, 4-(4-(trifluoromethyl)phenyl)-N-(3-methyl-4-((1S,4S)-5-methyl-2,5-diazabicyclo[2.2.1]heptan-2-yl)phenyl)pyrimidin-2-amine] | < 1000 nM
7 | CCC(=O)N1C[C@@H]2C[C@H]1CN2c1ccc(Nc2nccc(-c3ccc(N4CCOCC4)nc3)n2)cc1C [compound 196, 4-(6-(morpholin-4-yl)pyridin-3-yl)-N-(3-methyl-4-((1S,4S)-5-ethylcarbonyl-2,5-diazabicyclo[2.2.1]heptan-2-yl)phenyl)pyrimidin-2-amine] | < 1000 nM
8 | Cc1cc(Nc2nccc(-c3cnc4c(c3)OC(C)(C)C(=O)N4)n2)ccc1N1C[C@@H]2C[C@H]1CN2C(C)C [compound 246, 4-(2,2-dimethyl-3-oxo-3,4-dihydro-2H-pyrido[3,2-b][1,4]oxazin-7-yl)-N-(3-methyl-4-((1S,4S)-5-(1-methylethyl)-2,5-diazabicyclo[2.2.1]heptan-2-yl)phenyl)pyrimidin-2-amine] | < 1000 nM
9 | Cc1cc(Nc2nccc(-c3ccc(OC4CCOCC4)nc3)n2)ccc1N1C2CCC1CC(N(C)C)C2 (stereo not shown) [compound 283, 4-(6-(tetrahydropyran-4-yloxy)pyridin-3-yl)-N-(3-methyl-4-(3-(dimethylamino)-8-azabicyclo[3.2.1]octan-8-yl)phenyl)pyrimidin-2-amine] | < 1000 nM
10 | Cc1cc(Nc2nccc(-c3ccc(N4CCOCC4)nc3)n2)ccc1N1CCN2C(C1)[C@H]1CC[C@@H]2C1 (stereo partly drawn) [compound 245, 4-(6-(morpholin-4-yl)pyridin-3-yl)-N-(3-methyl-4-((6R,9S)-6,9-methanooctahydro-1H-pyrido[1,2-a]pyrazin-2-yl)phenyl)pyrimidin-2-amine] | < 1000 nM
11 | Cc1cc(Nc2nccc(-c3ccc4c(c3)SCC(=O)N4)n2)ccc1N1CCN2C(C1)[C@H]1CC[C@@H]2C1 (stereo partly drawn) [compound 279, 4-(3-oxo-3,4-dihydro-2H-benzo[b][1,4]thiazin-7-yl)-N-(3-methyl-4-((6R,9S)-6,9-methanooctahydro-1H-pyrido[1,2-a]pyrazin-2-yl)phenyl)pyrimidin-2-amine] | < 1000 nM
12 | Cc1cc(Nc2nccc(-c3ccc(N4C[C@@H](C)O[C@@H](C)C4)nc3)n2)ccc1N1C[C@@H]2C[C@H]1CN2C [compound 187, 4-(6-(cis-2,6-dimethylmorpholin-4-yl)pyridin-3-yl)-N-(3-methyl-4-((1S,4S)-5-methyl-2,5-diazabicyclo[2.2.1]heptan-2-yl)phenyl)pyrimidin-2-amine] | < 1000 nM

Same assay, conditions: Ba/F3 V617F cells, proliferation, level of activity to inhibit JAK2, read-out: IC50 (the source's name)

Row | Compound | GI50
13 | Cc1cc(Nc2nccc(-c3cnc(NC(=O)C4CC4)nc3)n2)ccc1N1C[C@@H]2C[C@H]1CN2C [compound 44, 4-(2-((cyclopropyl)carbonylamino)-pyrimidin-5-yl)-N-(3-methyl-4-((1S,4S)-5-methyl-2,5-diazabicyclo[2.2.1]heptan-2-yl)phenyl)pyrimidin-2-amine] | < 1000 nM
14 | CCC(=O)N1C[C@@H]2C[C@H]1CN2c1ccc(Nc2nccc(-c3cnc4c(c3)OC(C)(C)C(=O)N4)n2)cc1C [compound 28, 4-(2,2-dimethyl-3-oxo-3,4-dihydro-2H-pyrido[3,2-b][1,4]oxazin-7-yl)-N-(3-methyl-4-((1S,4S)-5-(ethylcarbonyl)-2,5-diazabicyclo[2.2.1]heptan-2-yl)phenyl)pyrimidin-2-amine] | < 1000 nM
15 | Cc1cc(Nc2ncc(C(F)(F)F)c(-c3ccc(N(C)C)nc3)n2)ccc1N1C[C@@H]2C[C@H]1CN2C [compound 3, 4-(6-(N,N-dimethylamino)pyridin-3-yl)-5-trifluoromethyl-N-(3-methyl-4-((1S,4S)-5-methyl-2,5-diazabicyclo[2.2.1]heptan-2-yl)phenyl)pyrimidin-2-amine] | 1000 to 10000 nM
16 | CN1CC2(C)CN(c3ccc(Nc4nccc(-c5ccc(N(C)C)nc5)n4)cc3F)CC(C)(C1)C2 [compound 83, 4-(6-(dimethylamino)pyridin-3-yl)-N-(3-fluoro-4-(1,5,7-trimethyl-3,7-diazabicyclo[3.3.1]nonan-3-yl)phenyl)pyrimidin-2-amine] | < 1000 nM
17 | Cc1cc(Nc2nccc(-c3ccc(N(C)C)nc3)n2)ccc1N1CC2(C)CN(C)CC(C)(C1)C2 [compound 76, 4-(6-(dimethylamino)pyridin-3-yl)-N-(3-methyl-4-(1,5,7-trimethyl-3,7-diazabicyclo[3.3.1]nonan-3-yl)phenyl)pyrimidin-2-amine] | < 1000 nM
18 | Cc1cc(Nc2nccc(-c3ccc(NC4CCCCC4)nc3)n2)ccc1N1C[C@@H]2C[C@H]1CN2C [compound 78, 4-(6-(cyclohexylamino)pyridin-3-yl)-N-(3-methyl-4-((1S,4S)-5-methyl-2,5-diazabicyclo[2.2.1]heptan-2-yl)phenyl)pyrimidin-2-amine] | < 1000 nM
19 | Cc1cc(Nc2nccc(-c3ccc(NC4CCCCC4)nc3)n2)ccc1N1CC2(C)CN(C)CC(C)(C1)C2 [compound 77, 4-(6-(cyclohexylamino)pyridin-3-yl)-N-(3-methyl-4-(1,5,7-trimethyl-3,7-diazabicyclo[3.3.1]nonan-3-yl)phenyl)pyrimidin-2-amine] | < 1000 nM
20 | CN1C[C@@H]2C[C@H]1CN2c1ccc(Nc2nccc(-c3ccc(NS(C)(=O)=O)nc3)n2)cc1F [compound 153, 4-(6-(methylsulfonylamino)pyridin-3-yl)-N-(3-fluoro-4-((1S,4S)-5-methyl-2,5-diazabicyclo[2.2.1]heptan-2-yl)phenyl)pyrimidin-2-amine] | 1000 to 10000 nM
21 | CCCNc1ncc(-c2ccnc(Nc3ccc(N4C[C@@H]5C[C@H]4CN5C)c(C)c3)n2)cn1 [compound 92, 4-(2-(propyl)aminopyrimidin-5-yl)-N-(3-methyl-4-((1S,4S)-5-methyl-2,5-diazabicyclo[2.2.1]heptan-2-yl)phenyl)pyrimidin-2-amine] | < 1000 nM
22 | CCN1C[C@@H]2C[C@H]1CN2c1ccc(Nc2nccc(-c3cnc4c(c3)OC3(CCC3)C(=O)N4)n2)cc1C [compound 32, 4-(3′-oxo-3′,4′-dihydrospiro[cyclobutane-1,2′-pyrido[3,2-b][1,4]oxazine]-7′-yl)-N-(3-methyl-4-((1S,4S)-5-ethyl-2,5-diazabicyclo[2.2.1]heptan-2-yl)phenyl)pyrimidin-2-amine] | < 1000 nM
23 | CN1C[C@@H]2C[C@H]1CN2c1ccc(Nc2nccc(-c3ccc(NC4CCCCC4)nc3)n2)cc1F [compound 79, 4-(6-(cyclohexylamino)pyridin-3-yl)-N-(3-fluoro-4-((1S,4S)-5-methyl-2,5-diazabicyclo[2.2.1]heptan-2-yl)phenyl)pyrimidin-2-amine] | < 1000 nM
24 | Cc1cc(-c2ccnc(Nc3ccc(N4C[C@@H]5C[C@H]4CN5C)c(F)c3)n2)cnc1N1CCOCC1 [compound 59, 4-(5-methyl-6-(morpholin-4-yl)pyridin-3-yl)-N-(3-fluoro-4-((1S,4S)-5-methyl-2,5-diazabicyclo[2.2.1]heptan-2-yl)phenyl)pyrimidin-2-amine] | < 1000 nM

Same assay, conditions: inhibition of JAK2 activity, proliferation of Ba/F3 V617F cells, read-out: IC50 (the source's name)

Row | Compound | GI50
25 | CN(C)c1nc(-c2ccnc(Nc3ccc(N4C[C@@H]5C[C@H]4CN5C)nc3)n2)cs1 [compound 177, 4-(2-(dimethylamino)thiazol-4-yl)-N-(6-((1S,4S)-5-methyl-2,5-diazabicyclo[2.2.1]heptan-2-yl)pyridin-3-yl)pyrimidin-2-amine] | > 20000 nM
